According to ChEMBL document CHEMBL5543157, “Lead Optimization of Butyrolactone I as an Orally Bioavailable Antiallergic Agent Targeting FcγRIIB” (J Med Chem, 2024):
The source made the active and inactive calls. The rule behind the calls is not given here.

Experiments:
RBL-2H3 [1] = assay: Antiallergic activity in rat RBL-2H3 cell model assessed as inhibition rate of IgE-mediated degranulation in by measuring […] at 50 uM relative to control; assay type: functional
RBL-2H3 [2] = assay: Antiallergic activity in rat RBL-2H3 cell model assessed as inhibition rate of IgE-mediated degranulation in by measuring […]; assay type: functional, cell-based
RBL-2H3 [3] = assay: Cytotoxicity against rat RBL-2H3 cells assessed as cell viability at 5 to 100 uM incubated for 24 hrs by CCK8- assay; assay type: toxicity, cell-based; settings: rbl-2h3, 24 h, dose 5-100 µM
Mus musculus [4] = assay: Antiallergic activity against ovalbumin-sensitized food allergic Balb/c mouse model assessed as suppression of spleen enlargement at 10 mg/kg once a day during OVA challenge phase (days 28 to 40) administered by intragastric; assay type: functional, organism-based; settings: route ig, time 13.0 day
Mus musculus [5] = assay: Antiallergic activity against ovalbumin-sensitized food allergic Balb/c mouse model assessed as suppression of intestinal edema by measuring reduced intestinal damage at 10 mg/kg once a day during OVA challenge phase (days 28 to 40) administered by intragastric; assay type: functional, organism-based; settings: route ig, time 13.0 day
Mus musculus [6] = assay: Antiallergic activity against ovalbumin-sensitized food allergic Balb/c mouse model assessed as decrease in OVA-specific IgE level treated once a day during OVA challenge phase (days 28 to 40) administered by intragastric; assay type: functional, organism-based; settings: dose 2.5-10 mg/kg, route ig, time 13.0 day
Mus musculus [7] = assay: Antiallergic activity against ovalbumin-sensitized food allergic Balb/c mouse model assessed as decrease in OVA-specific IgG1 level treated once a day during OVA challenge phase (days 28 to 40) administered by intragastric; assay type: functional, organism-based; settings: dose 2.5-10 mg/kg, route ig, time 13.0 day
Mus musculus [8] = assay: Antiallergic activity against ovalbumin-sensitized food allergic Balb/c mouse model assessed as decrease in OVA-specific IgG2a level at 2.5 to 10 mg/kg treated once a day during OVA challenge phase (days 28 to 40) administered by intragastric; assay type: functional, organism-based; settings: dose 2.5-10 mg/kg, route ig, time 13.0 day
Mus musculus [9] = assay: Antiallergic activity against ovalbumin-sensitized food allergic Balb/c mouse model assessed as decrease in histamine level at 2.5 to 10 mg/kg treated once a day during OVA challenge phase (days 28 to 40) administered by intragastric; assay type: functional, organism-based; settings: dose 2.5-10 mg/kg, route ig, time 13.0 day
Mus musculus [10] = assay: Antiallergic activity against ovalbumin-sensitized food allergic Balb/c mouse model assessed as decrease in mMCP-1 level at 2.5 to 10 mg/kg treated once a day during OVA challenge phase (days 28 to 40) administered by intragastric; assay type: functional, organism-based; settings: dose 2.5-10 mg/kg, route ig, time 13.0 day
Mus musculus [11] = assay: Antiallergic activity against ovalbumin-sensitized food allergic Balb/c mouse model assessed as decrease in IL-4 level at 10 mg/kg treated once a day during OVA challenge phase (days 28 to 40) administered by intragastric; assay type: functional, organism-based; settings: route ig, time 13.0 day
Mus musculus [12] = assay: Antiallergic activity against ovalbumin-sensitized food allergic Balb/c mouse model assessed as decrease in IFN-gamma level at 10 mg/kg treated once a day during OVA challenge phase (days 28 to 40) administered by intragastric; assay type: functional, organism-based; settings: route ig, time 13.0 day
Mus musculus [13] = assay: Antiallergic activity against passive cutaneous anaphylaxis (PCA) reaction BALB/c mouse model assessed as reduction in BSA/IgE-mediated allergic reaction in ear by measuring extravasation of Evans blue dye pretreated IG for 7 days followed administered with anti-DNP-IgE after 24 hrs treated with DNP-BSA by Evans blue dye based microscopic analysis; assay type: functional, organism-based; settings: dose 2.5-10 mg/kg, time 8.0 day
[14] = Metabolic stability in human liver microsmes assessed as half life measured upto 60 mins by HPLC analysis; assay type: ADME; settings: liver microsomes
[15] = Metabolic stability in human liver microsmes assessed as half life in presence of NADPH measured upto 60 mins by HPLC analysis; assay type: ADME; settings: liver microsomes
[16] = Metabolic stability in human liver microsmes assessed as half life in presence of UDPGA measured upto 60 mins by HPLC analysis; assay type: ADME; settings: liver microsomes
[17] = AUC (0 to 12 hrs) in Sprague-Dawley rat at 10 mg/kg, iv measured upto 12 hrs by mass spectrometry; assay type: ADME, organism-based; settings: in vivo
[18] = AUC (0 to infinity) in Sprague-Dawley rat at 10 mg/kg, iv measured upto 12 hrs by mass spectrometry; assay type: ADME, organism-based; settings: in vivo
[19] = Clearance in Sprague-Dawley rat at 10 mg/kg, iv measured upto 12 hrs by mass spectrometry; assay type: ADME, organism-based; settings: in vivo
[20] = Half life in Sprague-Dawley rat at 10 mg/kg, iv measured upto 12 hrs by mass spectrometry; assay type: ADME, organism-based; settings: in vivo
[21] = Tmax in Sprague-Dawley rat at 40 mg/kg, po measured upto 12 hrs by mass spectrometry; assay type: ADME, organism-based; settings: in vivo
[22] = Cmax in Sprague-Dawley rat at 40 mg/kg, po measured upto 12 hrs by mass spectrometry; assay type: ADME, organism-based; settings: in vivo
[23] = AUC (0 to 12 hrs) in Sprague-Dawley rat at 40 mg/kg, po measured upto 12 hrs by mass spectrometry; assay type: ADME, organism-based; settings: in vivo
[24] = AUC (0 to infinity) in Sprague-Dawley rat at 40 mg/kg, po measured upto 12 hrs by mass spectrometry; assay type: ADME, organism-based; settings: in vivo
[25] = Clearance in Sprague-Dawley rat at 40 mg/kg, po measured upto 12 hrs by mass spectrometry; assay type: ADME, organism-based; settings: in vivo
[26] = Half life in Sprague-Dawley rat at 40 mg/kg, po measured upto 12 hrs by mass spectrometry; assay type: ADME, organism-based; settings: in vivo
[27] = Oral bioavailability in Sprague-Dawley rat at 40 mg/kg measured upto 12 hrs by mass spectrometry; assay type: ADME, organism-based; settings: in vivo

COC(=O)[C@]1(Cc2ccc(O)c(CC=C(C)C)c2)OC(=O)C(OC(C)=O)=C1c1ccc(O)cc1
inhibition at 50 µM (RBL-2H3 [1]): 33.5%

CC(=O)[C@]1(Cc2ccc(O)c(CC=C(C)C)c2)OC(=O)C(O)=C1c1ccc(O)cc1
inhibition at 50 µM (RBL-2H3 [1]): > 90%
IC50 (RBL-2H3 [2]): 6.7 µM
inhibition (RBL-2H3 [2]): Dose-Dependent Effect
Activity (RBL-2H3 [3]): Non-Toxic
Activity (Mus musculus [4]): Active
Activity (Mus musculus [5]): Active
Activity (Mus musculus [6]): Dose-Dependent Effect
Activity (Mus musculus [7]): Dose-Dependent Effect
Activity (Mus musculus [8]): inactive
Activity (Mus musculus [9]): Active
Activity (Mus musculus [10]): Active
Activity (Mus musculus [11]): Active
Activity (Mus musculus [12]): Active
Activity (Mus musculus [13]): Dose-Dependent Effect
half-life [14]: 8.88 h
half-life [15]: 3.73 h
half-life [16]: 2.22 h
AUC(0-t) at 12 h [17]: 4.09 µg·h/mL
AUC(0-inf) [18]: 4.12 µg·h/mL
clearance ([19]; Sprague-Dawley): 2.7 L/h/kg
half-life [20]: 2.2 h
Tmax [21]: 0.2 h
Cmax [22]: 6.11 µg/mL
AUC(0-t) at 12 h [23]: 6.54 µg·h/mL
AUC(0-inf) [24]: 7.56 µg·h/mL
CL/F [25]: 5.4 L/h/kg
half-life [26]: 4.1 h
bioavailability [27]: 45.9%

COC(=O)[C@]1(Cc2ccc(O)c(CC=C(C)C)c2)OC(=O)C(OC(=O)C(C)C)=C1c1ccc(O)cc1
inhibition at 50 µM (RBL-2H3 [1]): 36.7%

C=CCOC1=C(c2ccc(OCC=C)cc2)[C@](Cc2ccc(OCC=C)c(CC=C(C)C)c2)(C(=O)OC)OC1=O
inhibition at 50 µM (RBL-2H3 [1]): 18.4%

COC(=O)[C@]1(Cc2ccc(OCC=C(C)C)c(CC=C(C)C)c2)OC(=O)C(OCC=C(C)C)=C1c1ccc(OCC=C(C)C)cc1
inhibition at 50 µM (RBL-2H3 [1]): 15.6%

C=CCOC1=C(c2ccc(OCC=C)cc2)[C@](Cc2ccc(O)c(CC=C(C)C)c2)(C(=O)OC)OC1=O
inhibition at 50 µM (RBL-2H3 [1]): 8.95%

COC(=O)[C@]1(Cc2ccc3c(c2)CCC(C)(C)O3)OC(=O)C(O)=C1c1ccc(O)cc1
inhibition at 50 µM (RBL-2H3 [1]): 10.1%

COC(=O)[C@]1(Cc2ccc(O)c(CC=C(C)C)c2)OC(=O)C(OC)=C1c1ccc(OC)cc1
inhibition at 50 µM (RBL-2H3 [1]): 17.1%

CC(C)=CCc1cc(C[C@@]2(C=O)OC(=O)C(O)=C2c2ccc(O)cc2)ccc1O
inhibition (RBL-2H3 [1]): Active
inhibition at 50 µM (RBL-2H3 [1]): 63.9%

COC(=O)[C@]1(Cc2ccc(OC)c(CC=C(C)C)c2)OC(=O)C(OC)=C1c1ccc(OC)cc1
inhibition at 50 µM (RBL-2H3 [1]): 38.7%

C=CCOC1=C(c2ccc(O)cc2)[C@](Cc2ccc(O)c(CC=C(C)C)c2)(C(=O)OC)OC1=O
inhibition at 50 µM (RBL-2H3 [1]): > 90%

COC(=O)[C@]1(Cc2ccc(OC(C)=O)c(CC=C(C)C)c2)OC(=O)C(OC(C)=O)=C1c1ccc(O)cc1
inhibition at 50 µM (RBL-2H3 [1]): 27.8%

CC(C)=CCc1cc(C[C@@]2(CO)OC(=O)C(O)=C2c2ccc(O)cc2)ccc1O
inhibition (RBL-2H3 [1]): inactive
inhibition at 50 µM (RBL-2H3 [1]): 27.7%

COC(=O)[C@]1(Cc2ccc(O)c(CCC(C)C)c2)OC(=O)C(O)=C1c1ccc(O)cc1
inhibition at 50 µM (RBL-2H3 [1]): 47.9%

CN1CCC(=C2c3ccccc3CC(=O)c3sccc32)CC1 [KETOTIFEN]
IC50 (RBL-2H3 [2]): 27.9 µM

COC(=O)[C@]1(Cc2ccc(O)c(CC=C(C)C)c2)OC(=O)C(OC)=C1c1ccc(O)cc1
inhibition at 50 µM (RBL-2H3 [1]): 33.2%

COC(=O)[C@]1(Cc2ccc(OC(C)=O)c(CC=C(C)C)c2)OC(=O)C(OC(C)=O)=C1c1ccc(OC(C)=O)cc1
inhibition at 50 µM (RBL-2H3 [1]): 11.7%

COC(=O)[C@]1(Cc2ccc(O)c(CC=C(C)C)c2)OC(=O)C(OC(=O)C(C)C)=C1c1ccc(OC(=O)C(C)C)cc1
inhibition at 50 µM (RBL-2H3 [1]): 21.3%

COC(=O)[C@]1(Cc2ccc(O)c(CC=C(C)C)c2)OC(=O)C(O)=C1c1ccc(O)cc1
inhibition at 50 µM (RBL-2H3 [1]): > 90%
IC50 (RBL-2H3 [2]): 13.5 µM
half-life [14]: 0.283 h
half-life [15]: 0.326 h
half-life [16]: 0.292 h
AUC(0-t) at 12 h [17]: 0.0217 µg·h/mL
AUC(0-inf) [18]: 0.0278 µg·h/mL
CL ([19]; iv, 10 mg/kg, 12 h): 432.1 L/h/kg
half-life [20]: 4.1 h
Tmax [21]: 0.7 h
Cmax [22]: 0.0108 µg/mL
AUC(0-t) at 12 h [23]: 0.0289 µg·h/mL
AUC(0-inf) [24]: 0.0369 µg·h/mL
half-life [26]: 4.7 h
bioavailability [27]: 33.2%

COC(=O)[C@]1(Cc2ccc(OC(=O)C(C)C)c(CC=C(C)C)c2)OC(=O)C(OC(=O)C(C)C)=C1c1ccc(OC(=O)C(C)C)cc1
inhibition at 50 µM (RBL-2H3 [1]): 6.93%
